Reference: patent EP4570805A1, “TRICYCLIC COMPOUNDS AND MEDICAL USE THEREOF” (Chia Tai Tianqing Pharmaceutical Group Co., Ltd., priority 2022, dated 2024)
pIC50: −log10 of the molar value. Where two headings read alike, the source gives them in different places.

Tests used:
Capan-1 cells = experiment: Inhibitory activity for Capan-1 cell proliferation (CCK-8); assay type: cell-based; conditions: 5 days incubation
Description: Capan-1 cells in a well-growing state were collected into a centrifuge tube, adjusted to a cell density of 1.5 × 10^4 cells/mL, and inoculated onto a 96-well plate (100 µL/well). […] Meanwhile, a control was set. After 5 days of incubation in the cell incubator, the assay reagent CCK-8 (manufacturer: Dojindo Laboratories, Beijing; 10 µL/well) was added. After 4 h of incubation in the cell incubator, the absorbance was measured at 450 nm on a PerkinElmer Envision microplate reader. A four-parameter analysis was performed, a dose-response curve was fitted, and IC50 was calculated.

[1] = microsomes, 1 h
Description: (§1) Liver microsome incubation samples (species: human, monkey, rat, and mouse) were prepared by mixing a PBS buffer (pH 7.4), a liver microsome solution (0.5 mg/mL), a test compound, and an NADPH + MgCl2 solution and incubated at 37 °C and 300 rpm for 1 h. Zero-hour samples were prepared by mixing a PBS buffer (pH 7.4), a liver microsome solution (0.5 mg/mL), and a test compound. An acetonitrile solution containing an internal standard was added to the samples, and the supernatants were prepared by protein precipitation, diluted, and then assayed by LC/MS/MS.

His-KRAS G12D (1-169) = biological target: T1, His-KRAS G12D (1-169) (Homo sapiens, UniProt P01116, G12D); experiment: Nucleotide exchange assay (SOS1cat-mediated, HTRF); assay type: biochemical; conditions: room temperature, read-out: Nucleotide exchange inhibitory activity IC50
T1 construct: His-KRAS G12D (1-169)
Description: • 1. Reagents: His-KRAS G12D (1-169); SOS1^cat (564-1049); GDP (purchased from Sigma); Anti-6HIS-Cryptate (purchased from Cisbio); EDA-GTP-DY-647P1 (purchased from Jena Bioscience) • 2. Buffer preparation: • 1) assay buffer: HEPES pH 7.4, NaCl, MgCl2, DTT, BSA, and Igepal; • 2) KRAS G12D working solution: A KRAS G12D working solution containing 100 nM His-KRAS G12D and 2 nM Anti-6HIS-Cryptate was prepared using the assay buffer; • 3) SOS1^cat working solution: An SOS1^cat working solution containing 20 nM SOS1^cat and 200 nM EDA-GTP-DY-647P1 was prepared using the assay buffer; • 4) blank control working solution: A blank control solution containing 2 nM Anti-6HIS-Cryptate was prepared using the assay buffer. • 3. Testing procedure: The entire experimental process was completed at room temperature. Using a black clear-bottom 384-well plate, 5 µL of KRAS G12D working solution was added to each well for the experimental and negative groups, while 5 µL of blank control working solution was added to each well for the blank group. The plate was incubated at room temperature for 10 min. Then, the compounds (at an initial concentration of 100 µM, 8 concentration gradients by 1:2 serial dilution) were added to the experimental groups using an ultra microsyringe and incubated at room temperature for 30 min. Finally, 5 µL of SOS1^cat working solution was added to each well, and after incubation at room temperature for 15 min, signal values were detected at 665 nm/620 nm using a PerkinElmer Envision HTS multi-label plate reader. The inhibition rate was calculated by the following formula: inhibition rate (%) = (mean value of negative control group - mean value of experimental group)/(mean value of negative control group - mean value of blank group) × 100%. The curves were fitted using the four-parameter logistic model with the logarithm of the compound concentration as the abscissa and the inhibition rate as the ordinate, and IC 50 values were calculated.

[2] = In vivo pharmacokinetics in mice; conditions: mouse, in vivo, po, ICR mice, IG, 10 mg/kg; for MRT last: read-out: MRT(0-t)
Description: ICR mice weighing 20 g to 24 g were randomized into groups with 9 mice in each group after 3 to 5 days of acclimatization, and intragastric administration of the experimental compounds was performed at a dose of 10 mg/kg.
The test animals (ICR mice) were fasted for 12 h before administration and fed 4 h after administration, and were given free access to water before, after, and during the experiment.
After intragastric administration, about 0.1 mL of blood was collected via the orbital sinus at 0.25 h (15 min), 0.5 h (30 min), 1 h, 2 h, 4 h, 6 h, 8 h, and 10 h (each mouse was subjected to blood collection at 3 to 4 time points, with 3 mice per time point). Following anticoagulation with EDTA-K2, the blood samples were transferred to a centrifuge within 30 min and then centrifuged at 4000 rpm for 10 min at 4 °C to separate the plasma. All the plasma samples were collected and immediately stored at -20 °C for testing.
20 µL of the plasma sample to be tested and the standard curve sample were pipetted, and 400 µL of acetonitrile solution containing an internal standard (20 ng/mL) was added. The mixture was shaken and mixed well for 10 min, and centrifuged at 13000 rpm for 10 min. 50 µL of the supernatant was taken and diluted with 100 µL of ultrapure water. After being mixed well, 0.5 µL of the resulting sample was subjected to LC/MS/MS, and a chromatogram was recorded.
Oral exposure of the compounds of the present disclosure was evaluated by in vivo pharmacokinetic experiments in mice.

AsPc-1 cells = experiment: Inhibitory activity for AsPc-1 cell proliferation (CCK-8); assay type: cell-based, human
Description: AsPc-1 cells in a well-growing state were collected into a centrifuge tube, adjusted to a cell density of 3 × 10^4 cells/mL, and inoculated onto a 96-well plate (100 µL/well). The compounds were added using a nanoliter pipettor such that the final concentrations of the compounds were 5000 nM-0.31 nM (the addition was performed in duplicate). Meanwhile, a control was set. After 72 h of incubation in the cell incubator, the assay reagent CCK-8 (manufacturer: Dojindo Laboratories; 10 µL/well) was added. After 3 h of incubation in the cell incubator, the absorbance was measured at 450 nm on a PerkinElmer Envision microplate reader. A four-parameter analysis was performed, a dose-response curve was fitted, and IC50 was calculated.

[3] = In vitro liver microsomal stability, mouse; conditions: mouse liver microsome 0.5 mg/mL, 37 °C
Description: as §1

[4] = Homo sapiens, ASPC1, 72 h incubation

T1 sequence (P01116 1-169 isoform P01116-2 G12D): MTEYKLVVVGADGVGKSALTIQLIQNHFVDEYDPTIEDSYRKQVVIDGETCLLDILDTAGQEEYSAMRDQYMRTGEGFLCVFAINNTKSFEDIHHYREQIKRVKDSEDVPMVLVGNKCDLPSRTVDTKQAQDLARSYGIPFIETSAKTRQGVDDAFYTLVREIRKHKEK

| Structure (SMILES) | pIC50 (Capan-1 cells; Homo sapiens, CAPAN-1, 120 h) | pIC50 (His-KRAS G12D (1-169)) | other results |
| --- | --- | --- | --- |
| C#Cc1c(F)ccc2cc(O)cc(-c3nc4c5c(nc(OCCN6CCC6)nc5c3F)N(C(C)c3cccnc3N)[C@@H](C)CO4)c12 (single isomer, unassigned) [Example 134] | > 7.00 | – | The remaining amount % (T = 60 min) (0.5 mg/mL) Mouse liver microsome [1]: >60% |
| C#Cc1c(F)ccc2cc(O)cc(-c3nc4c5c(nc(OC[C@@]67CCCN6C[C@H](F)C7)nc5c3F)N(C3CC(N)C3)CCO4)c12 (some centres unmarked) [Example 17] | – | ≥ 7.00 | – |
| C#Cc1c(F)ccc2cccc(-c3nc4c5c(nc(OC[C@@H]6CCCN6C)nc5c3F)N(C(C)c3cccnc3N)[C@@H](C)CO4)c12 (single isomer, unassigned) [Example 87] | > 7.00 | – | AUC(0-inf) [2]: 309 ng·h/mL; AUC(0-t) [2]: 266 ng·h/mL; Cmax [2]: 49 ng/mL; Tmax [2]: 15 min; half-life [2]: 220 min; MRT last [2]: 4.93 h |
| Cc1c(F)cc2[nH]ncc2c1-c1nc2c3c(nc(OC[C@@]45CCCN4C[C@H](F)C5)nc3c1F)N(C(C)c1cccnc1N)[C@@H](C)CO2 (single isomer, unassigned) [Example 85] | > 7.00 | – | AUC(0-inf) [2]: 214 ng·h/mL; AUC(0-t) [2]: 197 ng·h/mL; Cmax [2]: 50.2 ng/mL; Tmax [2]: 15 min; half-life [2]: 166 min; MRT last [2]: 3.4 h |
| C#Cc1c(F)ccc2cc(O)cc(-c3nc4c5c(nc(OC[C@H](C)N(C)C)nc5c3F)N(C(C)c3cccnc3N)[C@@H](C)CO4)c12 (single isomer, unassigned) [Example 111] | > 7.00 | – | The remaining amount % (T = 60 min) (0.5 mg/mL) Mouse liver microsome [1]: >60% |
| C#Cc1c(F)ccc2cc(O)cc(-c3nc4c5c(nc(OC[C@@]67CCCN6C[C@H](F)C7)nc5c3F)N(CC3CC3)CCO4)c12 [Example 6] | – | ≥ 7.00 | – |
| C#Cc1c(F)ccc2cc(O)cc(-c3nc4c5c(nc(OCC67CCCN6CC(F)C7)nc5c3F)N(C3CCC(N(C)C)C3)CCO4)c12 (centres unmarked) [Example 23] | – | 6.30 to 7.00 | – |
| C#Cc1c(F)ccc2cc(O)cc(-c3nc4c5c(nc(OC[C@@]67CCCN6C[C@H](F)C7)nc5c3F)N(C[C@H](C)N(C)C)CCO4)c12 [Example 25] | – | ≥ 7.00 | – |
| C#Cc1c(F)ccc2cc(O)cc(-c3nc4c5c(nc(OC[C@@]67CCCN6C[C@H](F)C7)nc5c3F)N(CC(F)(F)F)CCO4)c12 [Example 8] | 6.30 to 7.00 | ≥ 7.00 | pIC50 (AsPc-1 cells; [4]): 6.00 to 6.30 |
| C#Cc1c(F)ccc2cc(O)cc(-c3nc4c5c(nc(OCC67CCCN6CC(F)C7)nc5c3F)N(C(C)C)CCO4)c12 (centres unmarked) [Example 4] | 6.30 to 7.00 | ≥ 7.00 | pIC50 (AsPc-1 cells; [4]): 6.00 to 6.30 |
| C#Cc1c(F)ccc2cc(O)cc(-c3nc4c5c(nc(OC[C@@]67CCCN6C[C@H](F)C7)nc5c3F)N([C@H]3C[C@@H]3N)CCO4)c12 [Example 16] | – | ≥ 7.00 | – |
| C#Cc1c(F)ccc2cc(O)cc(-c3nc4c5c(nc(OC[C@@H]6CCN(C)C6)nc5c3F)N(C(C)c3cccnc3N)[C@@H](C)CO4)c12 (single isomer, unassigned) [Example 101] | > 7.00 | – | The remaining amount % (T = 60 min) (0.5 mg/mL) Mouse liver microsome [3]: >60% |
| C#Cc1c(F)ccc2cc(O)cc(-c3nc4c5c(nc(O[C@H]6CCN(C)C6)nc5c3F)N(C(C)c3cccnc3N)[C@@H](C)CO4)c12 (single isomer, unassigned) [Example 103] | > 7.00 | – | The remaining amount % (T = 60 min) (0.5 mg/mL) Mouse liver microsome [3]: >60% |
| C#Cc1c(F)ccc2cc(O)cc(-c3nc4c5c(nc(OCC67CCCN6CC(F)C7)nc5c3F)N(C)CCO4)c12 (centres unmarked) [Example 9] | – | ≥ 7.00 | – |
| C#Cc1c(F)ccc2cc(O)cc(-c3nc4c5c(nc(OCC67CCCN6CC(F)C7)nc5c3F)N(CC3(N(C)C)CC3)CCO4)c12 (centres unmarked) [Example 22] | – | ≥ 7.00 | – |
| C#Cc1c(F)ccc2cc(O)cc(-c3nc4c5c(nc(OC[C@@]67CCCN6C[C@H](F)C7)nc5c3F)N(C3CCCC3)CCO4)c12 [Example 7] | – | ≥ 7.00 | – |
| C#Cc1c(F)ccc2cc(O)cc(-c3nc4c5c(nc(OCCCN(C)C)nc5c3F)N(C(C)c3cccnc3N)[C@@H](C)CO4)c12 (single isomer, unassigned) [Example 79] | > 7.00 | – | The remaining amount % (T = 60 min) (0.5 mg/mL) Mouse liver microsome [3]: >60% |
| C#Cc1c(F)ccc2cc(O)cc(-c3nc4c5c(nc(OCC67CCCN6CC(F)C7)nc5c3F)N(C3CCC(N)C3)CCO4)c12 (centres unmarked) [Example 10] | – | 6.00 to 6.30 | – |
| C#Cc1c(F)ccc2cc(O)cc(-c3nc4c5c(nc(OC[C@@]67CCCN6C[C@H](F)C7)nc5c3F)NCCO4)c12 [Example 1] | – | ≥ 7.00 | – |
| C#Cc1c(F)ccc2cc(O)cc(-c3nc4c5c(nc(OC[C@@]67CCCN6C[C@H](F)C7)nc5c3F)N(C3CC(N(C)C)C3)CCO4)c12 (some centres unmarked) [Example 26] | – | 6.30 to 7.00 | – |
| C#Cc1c(F)ccc2cc(O)cc(-c3nc4c5c(nc(OCC67CCCN6CC(F)C7)nc5c3F)N(C3CCC(O)C3)CCO4)c12 (centres unmarked) [Example 15] | – | ≥ 7.00 | – |
| C#Cc1c(F)ccc2cc(O)cc(-c3nc4c5c(nc(OCC67CCCN6CC(F)C7)nc5c3F)N(CC(C)N)CCO4)c12 (centres unmarked) [Example 14] | – | ≥ 7.00 | – |
| C#Cc1c(F)ccc2cc(O)cc(-c3nc4c5c(nc(OCCN(C)C)nc5c3F)N(C(C)c3cccnc3N)[C@@H](C)CO4)c12 (single isomer, unassigned) [Example 95] | > 7.00 | – | The remaining amount % (T = 60 min) (0.5 mg/mL) Mouse liver microsome [3]: >60% |
| C#Cc1c(F)ccc2cc(O)cc(-c3nc4c5c(nc(OCC67CCCN6CC(F)C7)nc5c3F)N(CC(C)N)CCO4)c12 (centres unmarked) [Example 13] | – | ≥ 7.00 | – |
| C#Cc1c(F)ccc2cc(O)cc(-c3nc4c5c(nc(OC[C@@]67CCCN6C[C@H](F)C7)nc5c3F)N(C[C@@H](C)N(C)C)CCO4)c12 [Example 24] | – | ≥ 7.00 | – |
| C#Cc1c(F)ccc2cc(O)cc(-c3nc4c5c(nc(OCCN6CC(F)C6)nc5c3F)N(C(C)c3cccnc3N)[C@@H](C)CO4)c12 (single isomer, unassigned) [Example 172] | > 7.00 | – | pIC50 (AsPc-1 cells; [4]): ≥ 7.00 |
| C#Cc1c(F)ccc2cc(O)cc(-c3nc4c5c(nc(OCC67CCCN6CC(F)C7)nc5c3F)N(CCN(C)C)CCO4)c12 (centres unmarked) [Example 2] | – | ≥ 7.00 | – |
| C#Cc1c(F)ccc2cc(N)cc(-c3nc4c5c(nc(OCC67CCCN6CC(F)C7)nc5c3F)N(C(C)c3cccnc3N)C(C)CO4)c12 (single isomer, unassigned) [Example 54] | – | – | pIC50 (AsPc-1 cells; 72 h incubation): ≥ 7.00; pIC50 (Capan-1 cells): > 7.00 |
| CC(c1cccnc1N)N1c2nc(OC[C@@]34CCCN3C[C@H](F)C4)nc3c(F)c(-c4cc(O)cc5ccccc45)nc(c23)OC[C@@H]1C (single isomer, unassigned) [Example 118] | > 7.00 | – | pIC50 (AsPc-1 cells; [4]): ≥ 7.00 |
| C#Cc1c(F)ccc2cc(O)cc(-c3nc4c5c(nc(OCC67CCCN6CC(F)C7)nc5c3F)N(C(C)c3cccnc3N)C(C)CO4)c12 (single isomer, unassigned) [Example 40] | – | – | pIC50 (AsPc-1 cells; 72 h incubation): ≥ 7.00; pIC50 (Capan-1 cells): > 7.00 |
